Experimental data from article PMC9144027, “Evaluation of a Thermophilic, Psychrostable, and Heavy Metal-Resistant Red Sea Brine Pool Esterase” (Marine Drugs, 2022).

Test system: T1, EstATII-TM (EstATII, A126V)
T1 construct: full ORF (945 bp) in pET-SUMO, His-tagged SUMO fusion, E. coli BL21(DE3), Ni column; 55 kDa; tag cleavage not mentioned; KC958722 is the wild-type nucleotide record; tested form carries A126V
Assay: p-nitrophenol release at […] nm, nonlinear Michaelis-Menten fit
Type: biochemical, uncultured bacterium
Details: 30 °C, pH 7.5; substrate range 0.01-1 mM; no added metal; Table 1 prints 0.03 (±0.01) μmol; unit doubtful (substrate range suggests mM)

Km: 0.0303 mM
SMILES: CCCC(=O)Oc1ccc([N+](=O)[O-])cc1 [p-nitrophenyl butyrate]
